From article PMC4859512, “Polyamino-Isoprenic Derivatives Block Intrinsic Resistance of P. aeruginosa to Doxycycline and Chloramphenicol In Vitro” (PLoS ONE, 2016)
“And” between values parts separate entries of the source, which are not always exact repeats. Identical values can stand only once.

Tests used:
[1] = test system: P. aeruginosa CMZ091 (Mex XY overproducer); assay: Antibiotic susceptibility testing (broth micro-dilution MIC), strain CMZ091; type: cell-based, Pseudomonas aeruginosa; conditions: Pseudomonas aeruginosa, read-out: Minimal Inhibitory Concentration
Procedure: (§1) Experiments were performed on the BAC-SCREEN platform of the UMR-MD1, with a Freedom EVO 150 liquid handling system (Tecan, Lyon, France).
(§2) We concluded that compound 3 was the best compound and suitable for a more detailed study. The same experiment was performed using chloramphenicol (4 mg/L) in combination with 3 (10 μM final concentration). Amongst the 20 clinical isolates, the growth of 15 (75%) was impaired, while 5 (25%) were resistant (data not shown). These experiments were performed to study the effect of our compounds on the natural resistance of P. aeruginosa. In addition, we were wondering if compound 3 could also increase susceptibility to other antibiotic families including ß-Lactams, fluoroquinolones and aminoglycosides, that are representative of the main classes of anti-pseudomonal agents. Experiments were performed with the ß-lactams ceftazidime and ticarcillin and ciprofloxacin and amikacin. […] . […] To better characterize compound 3, we first searched for the minimum concentration of compound that allowed killing of bacteria by doxycycline, and PAßN was used as the reference molecule.

[2] = test system: P. aeruginosa PT629 (Mex AB overproducer); assay: Antibiotic susceptibility testing (broth micro-dilution MIC), strain PT629; type: cell-based, Pseudomonas aeruginosa; conditions: Pseudomonas aeruginosa, read-out: Minimal Inhibitory Concentration
Procedure: as §1, §2

[3] = test system: P. aeruginosa PA01 (wt); assay: Antibiotic susceptibility testing (broth micro-dilution MIC), strain PA01; type: cell-based, Pseudomonas aeruginosa; conditions: Pseudomonas aeruginosa, read-out: Minimal Inhibitory Concentration
Procedure: as §1
(§3) The same experiment was performed using chloramphenicol (4 mg/L) in combination with 3 (10 μM final concentration). […] These experiments were performed to study the effect of our compounds on the natural resistance of P. aeruginosa. […] Experiments were performed with the ß-lactams ceftazidime and ticarcillin and ciprofloxacin and amikacin.

[4] = test system: twenty clinical isolates of P. aeruginosa; assay: Combined antibiotic / polyamino-isoprenic derivative on MH agar plates, clinical isolates; type: cell-based, Pseudomonas aeruginosa; conditions: doxycycline 2 mg/L + compound 10 μM; 20 clinical isolates
Procedure: MH agar plates were prepared, containing 2 mg/L doxycycline and 2 mg/L doxycycline in combination with compounds at a concentration of 10 μM. Bacteria, 5 μL of a suspension of each clinical isolate adjusted to 5 x 10^5 colony-forming units per ml were spotted on each plate and growth was monitored after a 18 h period of incubation at 37°C.
PA01 is a well-studied reference strain of P. aeruginosa, however to extend our study we considered strains recently isolated from hospitalized patients. Thus, we decided to test this combination of doxycycline (2mg/L) with polyamino-isoprenic compounds (10 μM) on twenty clinical isolates recently isolated from the HIA-Laveran (see M&M section and S1 Table).

[5] = test system: P. aeruginosa FB1 (Mex B deleted); assay: Antibiotic susceptibility testing (broth micro-dilution MIC), strain FB1; type: cell-based; conditions: Pseudomonas aeruginosa, read-out: Minimal Inhibitory Concentration
Procedure: as §1

[6] = test system: human fibroblasts; assay: WST-1 cytotoxicity test, fibroblasts; type: cell-based; conditions: Homo sapiens, Fibroblast; WST1, 24 h; mean +/- SD, 2 independent experiments
Procedure: (§4) CHO-K1 cells (ATCC-LGC Standards Sarl (Molsheim, France) and human fibroblasts (Clinisciences, Paris, France) were maintained in McCoy’s 5A and DMEM media, respectively, supplemented with 10% bovine calf serum, 2 mM glutamine, and 100 U/mL/10 μg/mL penicillin/streptomycin. They were incubated at 37°C in a humidified atmosphere containing 5% CO2. The cell lines were seeded in 96-well plates and incubated overnight. The cytotoxic effects of compounds were assessed by the colorimetric WST-1 cell proliferation assay as previously described. Briefly, a range of compound concentrations from 30 μM to 1200 μM was added to triplicate cultures, and cells were incubated at 37°C for 24 h. At the end of the incubation period, cultures were washed three times with phosphate buffer saline (PBS) and incubated in fresh culture medium containing 10% WST-1 for an additional 30 min. Cell viability was evaluated by measuring the WST-1 absorbance at 450 nm in a microplate spectrophotometer MRX1 II (Dynex technologies, Chantilly, VA, USA). The Inhibitory Concentration 50% (IC50) was chosen to evaluate the cytotoxicity of compounds. IC50 was defined as the concentration of a compound that induced a 50% decrease in viable cells. Doxorubicin was used as a positive control.

[7] = test system: P. aeruginosa PA01 ERY^R (Mex CD overproducer); assay: microbe, parasite or virus in culture; type: cell-based, Pseudomonas aeruginosa; conditions: Pseudomonas aeruginosa, read-out: Minimal Inhibitory Concentration
Procedure: as §1, §3

[8] = test system: CHO-K1 cells; assay: cells; type: cell-based, Chinese Hamster; conditions: Cricetulus griseus, CHO-K1; WST1, 24 h; mean +/- SD, 2 independent experiments
Procedure: as §4

[9] = test system: P. aeruginosa PA0-7H (Mex EF overproducer); assay: Antibiotic susceptibility testing (broth micro-dilution MIC), strain PA0-7H; type: cell-based, Pseudomonas aeruginosa; conditions: Pseudomonas aeruginosa, read-out: Minimal Inhibitory Concentration
Procedure: as §1, §2

With CC(C)=CCCC(C)=CCCC(C)=CCNCCCN(CCCN)CCCN [Compound 4] the MIC [1] was 49 µg/mL and 125 µM, the MIC [2] was 49 µg/mL and 125 µM and the MIC [3] was 49 µg/mL and 125 µM. The “isolates with doxycycline susceptibility restored” value [4] was 88%, the MIC [5] was 49 µg/mL and 125 µM and the IC50 [6] was 136 ± 7.9 µM. The MIC [7] was 25 µg/mL and 62.5 µM, the IC50 [8] was 363 ± 20.3 µM and the MIC [9] was 49 µg/mL and 125 µM.
